Assay results reported in patent publication US20260034091A1, “Compositions and Methods for Treating Metabolic Disorders” (The Regents of the University of California, priority 2022, published 2026).

Tested on: CDAHFD-induced late stage NAFLD/NASH in mice
Test: Benchmark study against Firsocostat and Fenofibrate in CDAHFD-induced late stage NAFLD/NASH
Assay type: in vivo, C57BL/6J male mice
Conditions: QD oral gavage four weeks; TOFA 250 mg/kg, Firsocostat 5 mg/kg, Fenofibrate 50 mg/kg
Procedure: Six-week-old C57BL/6J male mice were fed with a L-amino acid diet with 60 kcal % fat with 0.1% methionine and no added choline (CDAHFD; Research Diets A06071302i) for eight weeks. Mice were randomly assigned to treatment groups of either a vehicle (control), 250 mg/kg of TOFA, 5 mg/kg of Firsocostat (Gilead Sciences), 50 mg/kg of Fenofibrate, or a combined dose of 5 mg/kg Firsocostat and 50 mg/kg Fenofibrate. All treatments were delivered QD by oral gavage for an additional four weeks. Mice weights and food intake were monitored during the treatment time course. Upon study termination at 12 weeks, liver and serum samples were collected. Serum liver damage biomarkers, ALT and AST, were measured by commercially available kits (abcam 105134 and abcam 105135, respectively). Hepatic and serum triglyceride levels were measured from a commercially available kit (abcam65336). Total RNA was extracted from liver tissues (Qiagen RNeasy kit 74106), and cDNA was prepared (BioRAD iScript™ Reverse Transcription) according to manufacturer's protocols. Quantitative PCR (qPCR) was performed with fast SYBR Green Mix (ThermoFisher A25742) on the QuantStudio6 System (Applied Biosciences). Protein expression levels of liver samples were measured by western blot using antibodies against VLDLR (AF2258, 1:2000), CPT1A (CST12252, 1:1000) and Histone H3 (CST9715, 1:1000). Membranes were developed using a HRP secondary antibody (1:5000) and visualized using an enhanced chemiluminescent HRP substrate (Thermo34577). Additional liver samples were fixed in 4% paraformaldehyde and embedded in paraffin blocks for sectioning and subsequently stained with hematoxylin and eosin (H&E).

COc1ccccc1[C@H](Cn1c(=O)n(C(C)(C)C(=O)O)c(=O)c2c(C)c(-c3ncco3)sc21)OC1CCOCC1 [Firsocostat, reference compound]
serum ALT: decreases | serum AST: decreases
